Test results taken from patent US11135231B2, “Methods and compositions for prevention and treatment of Apicomplexan infections” (Tufts Medical Center, Inc., priority 2016, dated 2021).
Like-named read-outs stand apart in the source and are kept apart here.

Tests used:
[1] = test system: P. falciparum strains; design: key: R = Clinically Resistant; S + Sensitive; settings: cited from earlier work
[2] = test system: Plasmodium falciparum 3D7; assay: P. falciparum SYBR green flow cytometry assay; assay type: cell-based; settings: 72 hours, read-out: EC50, proliferation of Plasmodium falciparum 3D7
Experimental: Plasmodium falciparum: Parasites were cultured in 96-well plates at 0.5% initial parasitemia. Parasites were cultured for 72 hours in the presence of dilutions of tartrolon D2, dihydroartemisinin (DHA, a drug for treating malaria as a positive control) or DMSO after which parasites were stained with SYBR green fluorescence and enumerated by flow cytometry. The assay was conducted once and all samples were run in triplicate. Data was analyzed with GraphPad Prism as described for T. gondii.

[3] = test system: P. falciparum strains; assay: 3H hypoxanthine incorporation assay of P. falciparum strains in human red blood cells; assay type: cell-based, Plasmodium falciparum
Experimental: The potency of the compounds of the invention against multi-drug resistant P. falciparum strains was tested. Parasites were cultured in 96-well plates in human red blood cells at 0.5% initial parasitemia for 72 hours in the presence of dilutions of tartrolon D/E (specifically, D2 as the starting material in FIG. 11A), purified tartrolon E (FIG. 11C), dihydroartemisinin (DHA, as a positive control in FIG. 11B), or DMSO (as a negative control). Parasites proliferation was then determined by ^3H hypoxanthine incorporation.
Specifically, parasitized red blood cells (pRBCs) were grown in 0.5% Albumax I (Thermo Fisher Scientific). Assays were set up in 96-well plates at 0.5% initial parasitemia and 0.5% hematocrit. Parasites were exposed to various concentrations of Tartrolon D or E and dihydroartemisinin (DHA) for 48 hours and then pulsed with 0.5 microcuries of tritium-labeled hypoxanthine Moravek (MT-700) for another 24 hours. At the end of 72 hours, assay plates were processed through an Inotech cell harvester and collected on Inotech glass fiber filters. Filters were transferred to Omniplate-96 cassettes (Perkin Elmer) and dried overnight at room temperature. About […] of Microscint-O scintillation cocktail (Perkin Elmer) was added to each well. Each well was counted for 2 minutes on a Packard Topcount scintillation counter. The uptake of radiolabeled hypoxanthine by compound-treated pRBCs was compared relative to uptake by DMSO solvent-treated controls. […] The starting material used as the active reagent in FIG. 11C was tartrolon E, purified as follows: extract from the bacterial pellet of the Teredinibacter turnerae T7901 was purified by reversed phase HPLC using diode array detection. A C18 column (Phenomenex CHO-7878, 100×10 mm) was employed with an isocratic mobile phase (85% acetontrile in water, 3.5 mL/min) to yield tartrolon E (4.7 mg, retention time 8 min).

[4] = test system: C. parvum; assay: Neonatal mouse model of C. parvum infection, histological scoring; assay type: in vivo, Cryptosporidium parvum; settings: neonatal mice, 2 mg/kg/dose b.i.d. for 4 days, histological score
Experimental: To determine if tartrolon D/E would be effective in vivo, the purified compound(s) of the invention was tested in a neonatal mouse model of C. parvum infection (Schaefer D A et al. (2000) Infect Immun 68(5):2608-261). Eight-day old neonatal mice were infected with C. parvum oocysts (50 times the ID50) and treated with purified tartrolon D/E (specifically, D1) or vehicle as a starting material for 4 days at 2 mg/kg/dose (b.i.d). At the end of the study period, mice were sacrificed and histological sections of jejunum, ileum, colon and caecum were examined. Infection in each section was scored by an observer blinded as to the sample identity.

[5] = test system: Babesia bovis; assay: SYBR green-based growth suppression assay in bovine red blood cells; assay type: cell-based; settings: for EC50: SYBR green fluorescence, read-out: EC50 against B. bovis
Experimental: Purified tartrolon D/E (with starting materials being either D1 or D2) was tested against another apicomplexan pathogen, Babesia bovis, which proliferates in bovine red blood cells. Growth suppression of B. bovis was quantified using a modified SybrGreen-based assay (Molecular Probes, Life Sciences Technology). SYBR green is an asymmetrical cyanine dye that is used as a nucleic acid stain. In this assay, parasite replication in red blood cells is measured directly by the incorporation of SYBR green into parasite DNA. Tartrolon D/E concentrations ranging from 0.001 to 10,000 nM were tested on infected cells and DMSO (vehicle) was run in parallel as a negative control.

[6] = test system: Toxoplasma gondii ME49; assay: Bright-Glo luciferase assay of parasite proliferation in HFF cells; assay type: cell-based
Experimental: Human foreskin fibroblast (HFF) cells were established in 96-well plates, and then infected with ME49 parasites engineered to express green fluorescent protein and firefly luciferase (2.5 to 5×10^5/well). Eight hours after infection, dilutions of Tartrolon D1 isolated as in Example 3, Tartrolon D2 isolated as in Example 4, or vehicle (DMSO) at equivalent concentrations were added to infected cells and the plates incubated for 24 hours (37° C., 5% CO2). Proliferation of the parasites was then measured using Bright-Glo luciferase assay system (available from Promega). Samples were run in triplicate and three independent biological replicates were conducted. The log 10 [Tartrolon D] versus percent inhibition of parasite proliferation was analyzed using the four parameter variable slope analysis in Graphpad Prism.

[7] = test system: C. parvum; assay: Neonatal mouse C. parvum infection, quantitative PCR of intestinal parasites; assay type: in vivo, Cryptosporidium parvum; settings: neonatal mice, qPCR
Experimental: To confirm the in vivo activity against Cryptosporidium parvum, neonatal mice were infected with C. parvum (5×10^4 oocysts per mouse), and 24 hours after infection, the mice were dosed twice daily for 4 days with either 4 or 40 mg/kg of tartrolon D/E (specifically, D2) in starting concentrations. Day 5 post-infection, the mice were sacrificed, the intestines collected and total DNA extracted. Intestinal parasite numbers were quantified by quantitative PCR (qPCR) of the C. parvum HSP70 gene and extrapolation to a standard curve standard curve of known oocyst numbers (see Shahiduzzaman, et al., Vet Parasitol 167, 43-9 (2010)). At both the high and the low dose of Tartrolon D/E, nearly 100% of the parasites were eliminated from the intestine as measured by quantitative PCR.

[8] = test system: Plasmodium berghei; assay: Plasmodium berghei-luciferase infection in mice, IVIS imaging; assay type: in vivo; settings: 8 mg/kg intraperitoneal once per day for 5 days, imaged seven days after infection
Experimental: Mice were infected with Plasmodium berghei expressing luciferase. 48 hours post infection mice were treated with tartrolon D/E (specifically, D2) initially solubilized in 2% methylcellulose and 0.5% Tween80 by intraperitoneal injection for 5 days, once per day. Control mice were treated with vehicle alone. Seven days after infection, mice were given luciferase substrate (150 mg/kg D-luciferin Potassium salt in PBS (Goldbio)) and imaged in an IVIS Lumina II to quantify level of infection.

[9] = test system: Sarcocystis neurona; assay: S. neurona luciferase proliferation assay in bovine turbinate cells; assay type: cell-based; settings: BT cells, 96 hours
Experimental: Sarcocystis neurona: Bovine turbinate cells (BT cells, ATCC CRL-1390, American Type Culture Collection, Manassas, Va.) were seeded into 96-well plates and infected with S. neurona merozoites that had been engineered to express green fluorescent protein and firefly luciferase (2×10^4/well). Dilutions of tartrolon D2 or DMSO were added to the infected cells and the plates incubated for 96 hours (37° C., 5% CO2). After 96 hours, parasite proliferation was quantified and the data analyzed as described with T. gondii ME49. The assay was conducted once and all samples were run in triplicate.

[10] = test system: Theileria equi; assay: T. equi growth in erythrocytes, hydroethidine flow cytometry; assay type: cell-based; settings: Erythrocyte, 72 hours, averaged from three independent experiments, read-out: EC50, proliferation of Theileria equi
Experimental: Theileria equi: The effect of tartrolon D2 on T. equi growth in vitro was quantified using an assay that has been previously described by Hines, S. A. et al. (Parasit Vectors 8, 33 (2015)). Briefly, wells containing an erythrocyte concentration of 9% and a starting percentage parasitized erythrocyte (ppe) of 0.3% were established in 96-well plates. Parasites were cultured in the presence of tartrolon D2 or DMSO for 72 hours with a change of media and compound every 24 hours. After 72 hours, the parasites were stained with hydroethidine and enumerated by flow cytometry (FACSCaliber). Samples were run in triplicate and three independent experiments conducted. The data was analyzed and the EC50 values calculated as described above for T. gondii ME49.

[11] = cell line 3D7 (Netherlands, clone of NF54)
[12] = cell line Goan Isolate (Goa, India)

| Compound | Drug resistance phenotype [1, 11] | Drug resistance phenotype ([1]; cell line 7G8 (Brazil)) | Drug resistance phenotype ([1]; cell line D6 (Sierra Leone)) | Drug resistance phenotype ([1]; cell line Dd2 (SE Asia)) | Drug resistance phenotype [1, 12] | Drug resistance phenotype ([1]; cell line HB3 (Honduras)) | Drug resistance phenotype ([1]; cell line NF54 (Netherlands)) | Drug resistance phenotype ([1]; cell line V1/S (Vietnam)) | other results |
| --- | --- | --- | --- | --- | --- | --- | --- | --- | --- |
| CC1(C)N=C(N)N=C(N)N1c1ccc(Cl)cc1 [Cycloguanil] | S | R | S | R | R | S | S | R | Drug resistance phenotype ([1]; cell line TM90C2A (Thailand)): R |
| C[C@H]1[C@@H](O)O[C@@H]2O[C@@]3(C)CC[C@H]4[C@H](C)CC[C@@H]1[C@@]24OO3 [Dihydroartemisinin, dihydroartemisinin] | – | – | – | – | – | – | – | – | EC50 [2]: ~0.02 nM; EC50 ([3]; Plasmodium falciparum, 3D7, Erythrocyte, parasite line 3D7, read-out: EC50): 0.2 nM; EC50 ([3]; Plasmodium falciparum, DD2, Erythrocyte, parasite line Dd2, read-out: EC50): 0.14 nM; EC50 ([3]; Plasmodium falciparum, Erythrocyte, parasite line 7G8, read-out: EC50): 0.095 nM; EC50 ([3]; Plasmodium falciparum, Erythrocyte, parasite line 2012 Indian Isolate (Goa), read-out: EC50): 0.21 nM; EC50 ([3]; Plasmodium falciparum, Erythrocyte, parasite line D6, read-out: EC50): 0.17 nM; EC50 ([3]; Plasmodium falciparum, Erythrocyte, parasite line V1S, read-out: EC50): 0.084 nM; EC50 ([3]; Plasmodium falciparum, HB3, Erythrocyte, parasite line HB3, read-out: EC50): 0.16 nM; EC50 ([3]; Plasmodium falciparum, NF54, Erythrocyte, parasite line NF54, read-out: EC50): 0.15 nM; EC50 ([3]; Plasmodium falciparum, TM90C2A, Erythrocyte, parasite line TM90C2A, read-out: EC50): 0.091 nM; EC50 ([3]; parasite line 3D7, listed as Dihydroartemisinin (DHA), read-out: EC50): 0.11 nM |
| OC(c1cc(C(F)(F)F)nc2c(C(F)(F)F)cccc12)C1CCCCN1 (stereo not shown) [Mefloquine] | S | S | S | R | S | S | S | S | Drug resistance phenotype ([1]; cell line TM90C2A (Thailand)): R |
| C=C[C@H]1C[N@@]2CC[C@H]1C[C@H]2[C@H](O)c1ccnc2ccc(OC)cc12 [Quinine] | S | R | S | R | – | S | S | R | – |
| COc1ncnc(NS(=O)(=O)c2ccc(N)cc2)c1OC [Sulfodoxine] | R | – | S | R | R | S | R | – | – |
| C[C@@H]1C(=O)C[C@@H](O)CC/C=C/C=C\CC[C@H](C)OC(=O)C(O)[C@]2(O)O[C@@H](CC[C@H]2C)[C@H](C)C(=O)C[C@@H](O)CC/C=C/C=C\CC[C@H](C)OC(=O)C(O)[C@]2(O)O[C@H]1CC[C@H]2C (stereo partly shown) [Tartrolon D1, tartrolon D] | – | – | – | – | – | – | – | – | inhibition of infection [4]: about 50%; concentration at which parasites did not incorporate any more fluorescence than uninfected red blood cells [5]: more than 20 nM; EC50 ([5]; Babesia bovis, Erythrocyte): 11.2 nM; EC50 ([6]; Toxoplasma gondii, HFF, read-out: EC50 against T. gondii ME49, added 8 h after infection, 24 hours, 3 independent experiments): 3.4 nM |
| C[C@@H]1C(=O)C[C@@H](O)CC/C=C/C=C\CC[C@H](C)OC(=O)C(O)[C@]2(O)O[C@@H](CC[C@H]2C)[C@H](C)C(=O)C[C@@H](O)CC/C=C/C=C\CC[C@H](C)OC(=O)C(O)[C@]2(O)O[C@H]1CC[C@H]2C (stereo partly shown) [Tartrolon D2, tartrolon D] | – | – | – | – | – | – | – | – | EC50 [2]: ~0.105 nM; parasites eliminated from the intestine ([7]; high dose 40 mg/kg twice daily for 4 days from 24 h after infection): ~100%; parasites eliminated from the intestine ([7]; low dose 4 mg/kg twice daily for 4 days from 24 h after infection): ~100%; P. berghei infection (luminescence) [8]: reduced P. berghei infection; EC50 ([5]; listed as tartrolon D2/E): 16 nM; EC50 [9]: ~13.2 nM; EC50 ([6]; read-out: EC50 against T. gondii ME49, added 8 h after infection, 24 hours, 3 independent experiments): 2.7 nM; EC50 [10]: ~0.35 nM |
| C[C@@H]1CCC2CC(=O)C[C@@H](O)CC/C=C/C=C\CC[C@H](C)OC(=O)[C@@H]3O[B-]45O[C@@H](C(=O)O[C@@H](C)CC/C=C\C=C\CC[C@H](O)CC(=O)CC6CC[C@@H](C)[C@]3(O6)O4)[C@@]1(O2)O5 [Tartrolon E, tartrolon E] | – | – | – | – | – | – | – | – | EC50 ([3]; strain Dd2, purified tartrolon E as starting material (FIG. 11C), read-out: EC50 against Dd2): ~0.16 nM |
